Here are results for 77 compounds from PubChem BioAssay AID1224920 (Broad Institute, 2016).

Where “and” joins values, the source holds several entries; their conditions need not be identical. Identical values can stand only once. Calls of active or inactive are those of the source.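 The calls were made as follows: active = IC50 no higher than ten times the top tested dose; inconclusive = flat fit with 30 to 70% inhibition, or poor fit; inactive = IC50 above ten times the top dose.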

One may read the IC50 as the concentration that inhibits the measured activity by half.

This assay has as its system Clostridium difficile clinical isolate growth, OD600, 24 h. Description: growth modulation of Clostridium difficile isolate – OD600, 9-point, retest, dose response (AID 1224920).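 Also: inhibitors lower culture turbidity so OD600 falls.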
As to `C/C=C/c1ccc(C2[C@@H]3CN(Cc4cccc(F)c4)C[C@H]2N3)cc1` (some centres not stated), the IC50 is 14.3 µM and 27.3 µM.

For the compound `O=C(C[C@H]1CC[C@H]2[C@@H](COC[C@@H](O)CN2C(=O)Nc2cc(Cl)cc(Cl)c2)O1)N1CCOCC1`, the IC50 was 29.1 µM.

Consider `COc1cccc(-c2ccc(C3[C@@H]4CN(S(=O)(=O)c5ccccc5C)C[C@H]3N4)cc2)c1` (some centres not stated), for which the IC50 is 29.1 µM.

Consider `COc1ccc(C#Cc2ccc([C@@H]3[C@@H](CO)N4CCCCN(C(=O)Nc5ccc(F)cc5)C[C@H]34)cc2)cc1`, for which the IC50 was 20.6 µM.

Turning to `Cc1cccc(-c2ccc(C3[C@H]4CNC[C@@H]3N4C(=O)Nc3ccccc3Cl)cc2)c1` (some centres not stated), the IC50 is 33.2 µM.

Take `CCCN(C)C[C@@H]1OCCCC[C@@H](C)Oc2ccc(NC(=O)Nc3ccc(C(F)(F)F)cc3)cc2C(=O)N([C@H](C)CO)C[C@H]1C`: the IC50 was 31.6 µM.

Consider `Cc1ccccc1-c1ccc(C2[C@@H]3CN(C(=O)Nc4cccc(F)c4)C[C@H]2N3)cc1` (some centres not stated), for which the IC50 was 39 µM.

As for `N#Cc1ccc(-c2ccc([C@@H]3[C@H]4CNC[C@@H]3N4Cc3cc(F)ccc3F)cc2)cc1`, the IC50 is 58.8 µM.

With `Cc1ccccc1S(=O)(=O)N1C[C@@H]2N[C@H](C1)C2c1ccc(-c2cccc(C#N)c2)cc1` (some centres not stated), the IC50 was 91.2 µM.

For `Cc1ccc(-c2ccc([C@@H]3[C@H](CO)N4CCCCN(S(=O)(=O)c5cccc(C)c5)C[C@@H]34)cc2)cc1`, the IC50 was 18.2 µM.

For `O=C(Nc1cccc(F)c1)N1CCCCN2[C@H](CO)[C@@H](c3ccc(-c4ccccc4F)cc3)[C@H]2C1`, the IC50 is 29.7 µM.

As for `Cc1cccc(-c2ccc([C@@H]3[C@H]4CN(CCC(F)(F)F)CCCCN4[C@H]3CO)cc2)c1`, the IC50 was 66.4 µM.

On to `O=C(Nc1ccc(C(F)(F)F)cc1)N1C[C@@H]2N[C@H](C1)C2c1ccc(-c2cccnc2)cc1` (some centres not stated), for which the IC50 is 15.2 µM.

Take `COc1ccccc1CN1C[C@@H]2N[C@H](C1)C2c1ccc(-c2ccccc2)cc1` (some centres not stated): the IC50 was 13.3 µM.

In the case of `O=S(=O)(c1ccccc1)N1C[C@@H]2N[C@H](C1)C2c1ccc(/C=C/c2ccccc2)cc1` (some centres not stated), the IC50 is 8.5 µM.

On to `OC[C@@H]1Nc2ccc(C#Cc3cccc(F)c3)cc2[C@@H]2NCC[C@H]12`, for which the IC50 was 42.8 µM.

For the compound `C(=C\c1ccc(C2[C@H]3CNC[C@@H]2N3Cc2nccs2)cc1)/c1ccccc1` (some centres not stated), the IC50 was 60.4 µM.

Regarding `N#Cc1cccc(-c2ccc(C3[C@@H]4CN(C(=O)Nc5ccc(C(F)(F)F)cc5)C[C@H]3N4)cc2)c1` (some centres not stated), the IC50 was 11.8 µM and 7.72 µM.

As to `O=C(Nc1ccc(C(F)(F)F)cc1)N1[C@@H]2CNC[C@H]1C2c1ccc(-c2ccccc2)cc1` (some centres not stated), the IC50 was 18.2 µM and 28.6 µM.

In the case of `CCNC(=O)C[C@@H]1CC[C@@H]2[C@H](COC[C@@H](O)CN2C(=O)Nc2ccc(C(F)(F)F)cc2)O1`, the IC50 was 31.6 µM.

As for `O=C(Nc1ccccc1)N1C[C@@H]2N[C@H](C1)[C@@H]2c1ccc(/C=C/c2ccccc2)cc1`, the IC50 is 13 µM.

As to `COc1ccc(C#Cc2ccc([C@H]3[C@@H](CO)N4CCCCN(C(=O)Nc5cccc(F)c5)C[C@H]34)cc2)cc1`, the IC50 is 4.44 µM.

With `Fc1ccc(-c2ccc(C3[C@@H]4CN(Cc5nccs5)C[C@H]3N4)cc2)cc1` (some centres not stated), the IC50 is 63 µM.

With `Cc1cccc(-c2ccc([C@H]3[C@@H](CO)N4CCCCN(CCC(F)(F)F)C[C@@H]34)cc2)c1`, the IC50 is 50.5 µM.

For `O=C(NC1CCCCC1)N1C[C@@H]2N[C@H](C1)C2c1ccc(-c2ccc(F)cc2)cc1` (some centres not stated), the IC50 is 59.7 µM.

With `Fc1ccc(-c2ccc(C3[C@@H]4CN(Cc5ccccc5)C[C@H]3N4)cc2)cc1` (some centres not stated), the IC50 is 5.92 µM and 31.9 µM.

Turning to `Cc1ccccc1-c1ccc(C2[C@@H]3CN(C(=O)c4ccc(F)cc4)C[C@H]2N3)cc1` (some centres not stated), the IC50 is 64.6 µM.

As to `OC[C@H]1Nc2ccc(-c3ccc(F)cc3)cc2[C@@H]2[C@H]1CCN2Cc1ccc(F)cc1`, the IC50 was 26.8 µM.

For the compound `COc1ccccc1CN1C[C@@H]2N[C@H](C1)C2c1ccc(-c2ccccc2OC)cc1` (some centres not stated), the IC50 was 35.3 µM and 38.3 µM.

Regarding `Fc1ccc(CN2[C@@H]3CNC[C@H]2C3c2ccc(-c3ccccc3)cc2)cc1` (some centres not stated), the IC50 was 28.6 µM.

For the compound `O=C(C[C@H]1CC[C@H]2[C@@H](COC[C@@H](O)CN2C(=O)Nc2ccc(C(F)(F)F)cc2)O1)NC1Cc2ccccc2C1`, the IC50 was 16.6 µM.

On to `Fc1cccc(CN2[C@@H]3CNC[C@H]2C3c2ccc(-c3cccc(F)c3)cc2)c1` (some centres not stated), for which the IC50 was 28 µM.

Regarding `Cc1ccc(-c2ccc([C@H]3[C@@H](CO)N4CCCCN(C(=O)Nc5ccccc5)C[C@H]34)cc2)cc1`, the IC50 is 37.7 µM.

In the case of `O=C(Nc1ccc(C(F)(F)F)cc1)N1[C@@H]2CNC[C@H]1C2c1ccc(-c2ccc(F)cc2)cc1` (some centres not stated), the IC50 is 13.9 µM.

For `OC[C@H]1[C@@H](c2ccc(-c3ccc(F)cc3)cc2)[C@@H]2CN(CCC(F)(F)F)CCCCN12`, the IC50 is 72.8 µM.

For `Cc1ccccc1-c1ccc(C2[C@@H]3CN(C(=O)Cc4ccccc4)C[C@H]2N3)cc1` (some centres not stated), the concentration for half-maximal inhibition (IC50) is 62.1 µM and 68.3 µM.

On to `COc1cccc(-c2ccc(C3[C@H]4CNC[C@@H]3N4Cc3ccc4c(c3)OCO4)cc2)c1` (some centres not stated), for which the IC50 was 30.1 µM.

As for `O=C(Nc1ccccc1F)N1C[C@@H]2N[C@H](C1)C2c1ccc(/C=C/c2ccccc2)cc1` (some centres not stated), the IC50 was 12.5 µM.

For the compound `OC[C@H]1[C@H](c2ccc(C#CC3CCCC3)cc2)[C@H]2CN(CCC(F)(F)F)CCCCN21`, the IC50 was 16.8 µM.

`C(=C\c1ccc(C2[C@@H]3CN(Cc4ccc5c(c4)OCO5)C[C@H]2N3)cc1)/c1ccccc1` (some centres not stated): the IC50 is 6.94 µM and 6.61 µM.

Regarding `COc1cccc(CN2[C@@H]3CNC[C@H]2C3c2ccc(-c3ccccc3C)cc2)c1` (some centres not stated), the IC50 was 29.5 µM.

Regarding `O=C(Nc1ccc(F)cc1)N1C[C@@H]2N[C@H](C1)C2c1ccc(/C=C/c2ccccc2)cc1` (some centres not stated), the IC50 was 5.52 µM and 10 µM.

Take `C(=C\c1ccc(C2[C@@H]3CN(Cc4cocn4)C[C@H]2N3)cc1)/c1ccccc1` (some centres not stated): the IC50 is 11 µM.

Turning to `COc1cccc(-c2ccc3c(c2)[C@H]2[C@H](CCN2Cc2ccccc2OC)[C@H](CO)N3)c1`, the IC50 was 56.5 µM.

With `COc1cccc(-c2ccc(C3[C@H]4CNC[C@@H]3N4Cc3ccc(F)cc3)cc2)c1` (some centres not stated), the IC50 was 11.9 µM.

For `COc1ccccc1CN1CC[C@@H]2[C@H]1c1cc(C3=CCCCC3)ccc1N[C@@H]2CO`, the IC50 is 74.5 µM.

As for `O=S(=O)(Cc1ccccc1)N1CCCCN2[C@H](CO)[C@@H](c3ccc(C#Cc4ccccc4)cc3)[C@H]2C1`, the IC50 is > 240 µM (inactive).

Consider `CCCC#Cc1ccc([C@@H]2[C@H](CO)N3CCCCN(S(=O)(=O)c4ccccc4C)C[C@@H]23)cc1`, for which the IC50 is 24 µM.

As for `CCNC(=O)C[C@H]1CC[C@H]2[C@@H](COC[C@@H](O)CN2C(=O)Nc2ccc(C(F)(F)F)cc2)O1`, the IC50 is 8.27 µM.

With `COc1cccc(S(=O)(=O)N2C[C@@H]3N[C@H](C2)C3c2ccc(-c3cccc(C)c3)cc2)c1` (some centres not stated), the IC50 is 8.9 µM.

As to `COc1ccccc1C#Cc1ccc2c(c1)[C@H]1[C@H](CCN1C(=O)c1ccncc1)[C@H](CO)N2`, the IC50 is 63.5 µM.

For the compound `C/C=C/c1ccc(C2[C@H]3CNC[C@@H]2N3C(=O)Nc2ccc(C(F)(F)F)cc2)cc1` (some centres not stated), the IC50 was 12 µM.

With `O=C(C1CCCC1)N1C[C@@H]2N[C@H](C1)C2c1ccc(/C=C/c2ccccc2)cc1` (some centres not stated), the IC50 is 30.1 µM.

As for `O=C(NC[C@@H]1N[C@@H](CO)[C@H]1c1ccc(C2=CCCCC2)cc1)c1ccc(F)cc1`, the IC50 is 57.8 µM.

As to `N#C[C@@H]1[C@@H](c2ccc(C#Cc3cccnc3)cc2)[C@@H](CO)N1C(=O)NC1CCCC1`, the IC50 is > 240 µM (inactive).

Take `O=C(C[C@@H]1CC[C@H]2[C@@H](COC[C@@H](O)CN2C(=O)Nc2ccc(Cl)c(Cl)c2)O1)NC1CCC1`: the IC50 is 8 µM.

With `COc1ccc(S(=O)(=O)N2[C@@H]3CNC[C@H]2C3c2ccc(-c3cccc(C)c3)cc2)cc1` (some centres not stated), the IC50 was 83 µM.

In the case of `O=C(Nc1ccccc1)N1CCCCN2[C@@H](CO)[C@@H](c3ccc(C#Cc4ccccc4)cc3)[C@@H]2C1`, the IC50 was 19 µM.

Take `COc1ccc(C#Cc2ccc([C@H]3[C@@H](CO)N4CCCCN(Cc5ccccc5F)C[C@H]34)cc2)cc1`: the IC50 is 4.95 µM.

`N#Cc1ccc(-c2ccc([C@@H]3[C@H]4CNC[C@@H]3N4Cc3ccc4c(c3)OCO4)cc2)cc1`: the IC50 is 102 µM.

As for `Cc1cccc(-c2ccc(C3[C@H]4CNC[C@@H]3N4C(=O)Nc3ccc(F)cc3)cc2)c1` (some centres not stated), the IC50 is 30.6 µM.

As to `O=C(NC1CCCCC1)N1C[C@@H]2N[C@H](C1)C2c1ccc(-c2cccc(F)c2)cc1` (some centres not stated), the IC50 is 61.2 µM.

With `COc1ccccc1CN1C[C@@H]2N[C@H](C1)C2c1ccc(-c2ccc(C#N)cc2)cc1` (some centres not stated), the IC50 is 45.1 µM.

Take `c1ccc(CN2C[C@@H]3N[C@H](C2)C3c2ccc(-c3ccccc3)cc2)cc1` (some centres not stated): the IC50 is 18.9 µM and 26.2 µM.

Regarding `O=C(C[C@@H]1CC[C@@H]2[C@H](COC[C@H](O)CN2C(=O)Nc2ccc(C(F)(F)F)cc2)O1)NCC1CCCCC1`, the IC50 was 7.67 µM.

Consider `O=S(=O)(c1ccc(F)cc1)N1C[C@@H]2N[C@H](C1)C2c1ccc(/C=C/c2ccccc2)cc1` (some centres not stated), for which the IC50 was 8.8 µM.

Take `O=C(C1CCCCC1)N1CC[C@@H]2[C@H]1c1cc(C#Cc3ccc(F)cc3)ccc1N[C@@H]2CO`: the IC50 was 45.2 µM.

For `OC[C@H]1[C@H](c2ccc(C#CC3CCCC3)cc2)[C@@H]2CN(CCC(F)(F)F)CCCCN12`, the IC50 was 35 µM.

On to `OC[C@@H]1[C@@H](c2ccc(C#CC3CCCC3)cc2)[C@H]2CN(CCC(F)(F)F)CCCCN12`, for which the IC50 is 26.9 µM.

As to `OC[C@@H]1[C@H](c2ccc(/C=C/c3ccccc3)cc2)[C@H]2CN(CCC(F)(F)F)CCCCN12`, the IC50 was 28.7 µM.

Turning to `COc1cc(CN2C[C@@H]3N[C@H](C2)C3c2ccc(-c3ccc(C#N)cc3)cc2)cc(OC)c1` (some centres not stated), the IC50 is 38.7 µM.

For the compound `COc1ccccc1CN1C[C@@H]2N[C@H](C1)C2c1ccc(/C=C/c2ccccc2)cc1` (some centres not stated), the IC50 was 3.7 µM and 19 µM.

`COc1cc(CN2C[C@@H]3N[C@H](C2)C3c2ccc(-c3ccccc3C)cc2)cc(OC)c1` (some centres not stated): the IC50 was 18.8 µM and 13.7 µM.

As to `Cc1cccc(-c2ccc(C3[C@@H]4CN(Cc5cccc(F)c5)C[C@H]3N4)cc2)c1` (some centres not stated), the IC50 was 5.89 µM and 8.61 µM.

On to `Cc1cccc(-c2ccc(C3[C@@H]4CN(Cc5ccccc5)C[C@H]3N4)cc2)c1` (some centres not stated), for which the IC50 was 17.1 µM.

`N#Cc1ccc(-c2ccc3c(c2)[C@@H]2[C@@H](CCN2Cc2ccc4c(c2)OCO4)[C@@H](CO)N3)cc1`: the IC50 was 32.3 µM.

As for `COc1cc(CN2[C@@H]3CNC[C@H]2C3c2ccc(-c3ccccc3C)cc2)cc(OC)c1` (some centres not stated), the IC50 is 18.8 µM.
